Reference: US9751874B2, “Hydroxy containing FXR (NR1H4) modulating compounds” (Gilead Sciences, Inc., priority 2014, dated 2017)

Assays:
[1] = target: T1, FXR ligand binding domain (Homo sapiens, UniProt Q96RI1); assay: Mammalian One Hybrid (M1H) assay, Gal4 promoter driven transactivation in HEK293 cells; type: cell-based; settings: Gal4-FXR-LBD luciferase reporter, 16 h
T1 construct: expressed in transfected cells; host or cells: HEK293 cells, transiently transfected with pCMV-BD-FXR-LBD, pFR-Luc and pRL-CMV
T1 sequence (Q96RI1 187-472 isoform Q96RI1-2): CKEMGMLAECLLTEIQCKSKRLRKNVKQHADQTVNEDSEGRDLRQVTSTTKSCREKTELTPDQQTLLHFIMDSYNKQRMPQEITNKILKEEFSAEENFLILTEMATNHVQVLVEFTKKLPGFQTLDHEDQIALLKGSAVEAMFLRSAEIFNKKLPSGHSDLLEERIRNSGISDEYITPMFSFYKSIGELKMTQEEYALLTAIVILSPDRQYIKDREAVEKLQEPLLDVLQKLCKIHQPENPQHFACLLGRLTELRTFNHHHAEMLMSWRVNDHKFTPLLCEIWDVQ
Protocol: Mammalian One Hybrid (M1H) Assay
Determination of a ligand mediated Gal4 promoter driven transactivation to quantify ligand binding mediated activation of FXR was performed as follows: The cDNA part encoding the FXR ligand binding domain was cloned into vector pCMV-BD (Stratagene) as a fusion to the yeast GAL4 DNA binding domain under the control of the CMV promoter. The amino acid boundaries of the ligand binding domain were amino acids 187-472 of Database entry NM_005123 (RefSeq). The plasmid pFR-Luc (Stratagene) was used as the reporter plasmid, containing a synthetic promoter with five tandem repeats of the yeast GAL4 binding sites, driving the expression of the Photinus pyralis (American firefly) luciferase gene as the reporter gene. In order to improve experimental accuracy the plasmid pRL-CMV (Promega) was cotransfected. pRL-CMV contains the constitutive CMV promoter, controlling the expression of the Renilla reniformis luciferase. All Gal4 reporter gene assays were done in HEK293 cells (obtained from DSMZ, Braunschweig, Germany) grown in MEM with L-Glutamine and Earle's BSS supplemented with 10% fetal bovine serum, 0.1 mM nonessential amino acids, 1 mM sodium pyruvate, and 100 units Penicilin/[…] per mL at 37° C. in 5% CO2. Medium and supplements were obtained from Invitrogen. For the assay, […] cells were plated per well in 96 well plates in 100 μL per well MEM without Phenol Red and L-Glutamine and with Earle's BSS supplemented with 10% charcoal/dextran treated FBS (HyClone, South Logan, Utah), 0.1 mM nonessential amino acids, 2 mM glutamine, 1 mM sodium pyruvate, and 100 units Penicilin/[…] per mL, incubated at 37° C. in 5% CO2. The following day the cells were >90% confluence. Medium was removed and cells were transiently transfected using 20 μL per well of a OptiMEM—polyethylene-imine-based transfection-reagent (OptiMEM, Invitrogen; Polyethyleneimine, Aldrich Cat No. 40,827-7) including the three plasmids described above. MEM with the same composition as used for plating cells was added 2-4 h after addition of transfection mixture. Then compound stocks, prediluted in MEM were added (final vehicle concentration not exceeding 0.1%). Cells were incubated for additional 16 h before firefly and renilla luciferase activities were measured sequentially in the same cell extract using a Dual-Light-Luciferase-Assay system (Dyer et al., Anal. Biochem. 2000, 282, 158-161). All experiments were done in triplicates.

[2] = target: T2, human FXR alpha ligand binding domain (Homo sapiens, UniProt Q96RI1); assay: FRET activity assay (ligand mediated cofactor peptide interaction, LANCE); type: biochemical; settings: GST-FXR-LBD / biotinylated SRC-1 peptide (676-700), read-out: F EC50
T2 construct: made in house; host or cells: E. coli BL21(DE3), vector pDEST15
T2 sequence (Q96RI1 187-472 isoform Q96RI1-2): T1 sequence (Q96RI1 187-472 isoform Q96RI1-2)
Protocol: Determination of a ligand mediated cofactor peptide interaction to quantify ligand binding to the nuclear receptor FXR was performed as follows: Preparation of human FXR alpha ligand binding domain: The human FXRalpha LBD was expressed in E. coli strain BL21(DE3) as an N-terminally GST tagged fusion protein. The DNA encoding the FXR ligand binding domain was cloned into vector pDEST15 (Invitrogen). Expression was under control of an IPTG inducible T7 promoter. The amino acid boundaries of the ligand binding domain were amino acids 187-472 of Database entry NM_005123 (RefSeq). Expression and purification of the FXR-LBD: An overnight preculture of a transformed E. coli strain was diluted 1:20 in LB-Ampicillin medium and grown at 30° C. to an optical density of OD600=0.4-0.6. Gene expression was then induced by addition of 0.5 mM IPTG. Cells were incubated an additional 6 h at 30° C., 180 rpm. Cells were collected by centrifugation (7000×g, 7 min, rt). Per liter of original cell culture, cells were resuspended in 10 mL lysis buffer (50 mM Glucose, 50 mM Tris pH 7.9, 1 mM EDTA and 4 mg/mL lysozyme) and left on ice for 30 min. Cells were then subjected to sonication and cell debris removed via centrifugation (22000×g, 30 min, 4° C.). Per 10 mL of supernatant 0.5 mL prewashed Glutathione 4B sepharose slurry (Qiagen) was added and the suspension kept slowly rotating for 1 h at 4° C. Glutathione 4B sepharose beads were pelleted by centrifugation (2000×g, 15 sec, 4° C.) and washed twice in wash buffer (25 mM Tris, 50 mM KCl, 4 mM MgCl2 and 1M NaCl). The pellet was resuspended in 3 mL elution buffer per liter of original culture (elution buffer: 20 mM Tris, 60 mM KCl, 5 mM MgCl2 and 80 mM glutathione added immediately prior to use as powder). The suspension was left rotating for 15 min at 4° C., the beads pelleted and eluted again with half the volume of elution buffer than the first time. The eluates were pooled and dialysed overnight in 20 mM Hepes buffer (pH 7.5) containing 60 mM KCl, 5 mM MgCl2 as well as 1 mM dithiothreitol and 10% (v/v) glycerol. The protein was analysed by SDS-Page.
The method measures the ability of putative ligands to modulate the interaction between the purified bacterial expressed FXR ligand binding domain (LBD) and a synthetic biotinylated peptide based on residues 676-700 of SRC-1 (LCD2, 676-700). The sequence of the peptide used was B—[…]—COOH where the N-terminus was biotinylated (B). The ligand binding domain (LBD) of FXR was expressed as fusion protein with GST in BL-21 cells using the vector pDEST15. Cells were lysed by sonication, and the fusion proteins purified over glutathione sepharose (Pharmacia) according to the manufacturers instructions. For screening of compounds for their influence on the FXR-peptide interaction, the Perkin Elmer LANCE technology was applied. This method relies on the binding dependent energy transfer from a donor to an acceptor fluorophor attached to the binding partner of interest. For ease of handling and reduction of background from compound fluorescence LANCE technology makes use of generic fluorophore labels and time resolved detection Assays were done in a final volume of 25 μL in a 384 well plate, in a Tris-based buffer (20 mM Tris-HCl pH 7.5; 60 mM KCl, 5 mM MgCl2; 35 ng/μL BSA), containing 20-60 ng/well recombinantly expressed FXR-LBD fused to GST, 200-600 nM N-terminally biotinylated peptide, representing SRC1 aminoacids 676-700, 200 ng/well Streptavidin-xIAPC conjugate (Prozyme) and 6-10 ng/well Eu W1024-antiGST (Perkin Elmer). DMSO content of the samples was kept at 1%. After generation of the assay mix and diluting the potentially FXR modulating ligands, the assay was equilibrated for 1 h in the dark at rt in FIA-plates black 384 well (Greiner). The LANCE signal was detected by a Perkin Elmer VICTOR2VTM Multilabel Counter. The results were visualized by plotting the ratio between the emitted light at 665 and 615 nm. […]

Structure (SMILES) | EC50 [1] [nM] | EC50 [2] [nM]
CC(C)n1nc(C(=O)O)c2ccc([C@]3(O)CC[C@@H](OCc4c(-c5c(Cl)cccc5Cl)noc4C4CC4)CC3)cc21 [Example 11-45, 6-((1s,4s)-4-((5-Cyclopropyl-3-(2,6-dichlorophenyl)isoxazol-4-yl)methoxy)-1-hydroxycyclohexyl)-1-isopropyl-1H-indazole-3-carboxylic acid] | 140 | 7
O=C(O)c1ccc2sc([C@]3(O)CC[C@@H](OCc4c(-c5c(Cl)cccc5Cl)noc4C4CC4)CC3)nc2c1 [Example 4, 2-((1s,4s)-4-((5-Cyclopropyl-3-(2,6-dichlorophenyl)isoxazol-4-yl)methoxy)-1-hydroxycyclohexyl)benzo[d]thiazole-5-carboxylic acid] | 100 | 21
O=C(O)c1nsc2ccc([C@]3(O)CC[C@@H](OCc4c(-c5c(Cl)cccc5Cl)noc4C4CC4)CC3)cc12 [Example 33, 5-((1s,4s)-4-((5-Cyclopropyl-3-(2,6-dichlorophenyl)isoxazol-4-yl)methoxy)-1-hydroxycyclohexyl)benzo[d]isothiazole-3-carboxylic acid] | 2700 | 120
O=C(O)c1ccc2nc([C@]3(O)CC[C@@H](OCc4c(C5CCC(F)(F)CC5)noc4C4CC4)CC3)sc2c1 [Example 11-1, 2-((1s,4s)-4-((5-Cyclopropyl-3-(4,4-difluorocyclohexyl)isoxazol-4-yl)methoxy)-1-hydroxycyclohexyl)benzo[d]thiazole-6-carboxylic acid] | > 3000 | 2200
O=C(O)Cc1ccc(F)c([C@]2(O)CC[C@@H](OCc3c(-c4c(Cl)cccc4Cl)noc3C3CC3)CC2)c1 [Example 11-9, 2-(3-((1s,4s)-4-((5-Cyclopropyl-3-(2,6-dichlorophenyl)isoxazol-4-yl)methoxy)-1-hydroxycyclohexyl)-4-fluorophenyl)acetic acid] | 120 | 47
NC(=O)c1cc(F)c2nc([C@]3(O)CC[C@@H](OCc4c(-c5c(Cl)cncc5Cl)noc4C4CC4)CC3)sc2c1 [Example 18, 2-((1s,4s)-4-((5-Cyclopropyl-3-(3,5-dichloropyridin-4-yl)isoxazol-4-yl)methoxy)-1-hydroxycyclohexyl)-4-fluorobenzo[d]thiazole-6-carboxamide] | 440 | 98
O=C(O)c1c(F)cc2nc([C@]3(O)CC[C@@H](OCc4c(-c5c(Cl)cccc5Cl)noc4C4CC4)CC3)sc2c1F [Example 14-2, 2-((1s,4s)-4-((5-Cyclopropyl-3-(2,6-dichlorophenyl)isoxazol-4-yl)methoxy)-1-hydroxycyclohexyl)-5,7-difluorobenzo[d]thiazole-6-carboxylic acid] | 2700 | 32
O=C(O)c1ccnc2cc([C@]3(O)CC[C@@H](OCc4c(-c5c(Cl)cccc5Cl)noc4C4CC4)CC3)ccc12 [Example 29, 7-((1s,4s)-4-((5-cyclopropyl-3-(2,6-dichlorophenyl)isoxazol-4-yl)methoxy)-1-hydroxycyclohexyl)quinoline-4-carboxylic acid] | 2600 | 51
COCC1(OCc2c(-c3c(Cl)cccc3Cl)noc2C2CC2)C[C@H]2CC[C@@H](C1)[C@]2(O)c1nc2c(F)cc(C(=O)O)cc2s1 (single isomer, unassigned) [Example 11-41] | 320 | 190

These reach a lower EC50 [1]. Values come first.

EC50 [1] [nM] | EC50 [2] [nM] | Structure (SMILES)
37 | 4.6 | O=c1nc(-c2cc(F)c3nc([C@]4(O)[C@@H]5CC[C@H]4C[C@H](OCc4c(-c6c(Cl)cccc6Cl)noc4C4CC4)C5)sc3c2)[nH]o1 [Example 36, 3-(2-((1R,3s,5S,8r)-3-((5-Cyclopropyl-3-(2,6-dichlorophenyl)isoxazol-4-yl)methoxy)-8-hydroxybicyclo[3.2.1]octan-8-yl)-4-fluorobenzo[d]thiazol-6-yl)-1,2,4-oxadiazol-5(2H)-one]
6.4 | 82 | Cc1cccc(C)c1OCc1noc(C2CC2)c1CO[C@@H]1C[C@H]2CC[C@@H](C1)[C@]2(O)c1nc2c(F)cc(C(=O)O)cc2s1 [Example 11-50, 2-((1R,3s,5S,8r)-3-((5-Cyclopropyl-3-((2,6-dimethylphenoxy)methyl)isoxazol-4-yl)methoxy)-8-hydroxybicyclo[3.2.1]octan-8-yl)-4-fluorobenzo[d]thiazole-6-carboxylic acid]
23 | 120 | CC1(C)C[C@@H](OCc2c(-c3c(Cl)cccc3Cl)noc2C2CC2)CC[C@]1(O)c1nc2c(F)cc(C(=O)O)cc2s1 (racemic) [Example 11-32, 2-((1R,4S)-4-((5-Cyclopropyl-3-(2,6-dichlorophenyl)isoxazol-4-yl)methoxy)-1-hydroxy-2,2-dimethylcyclohexyl)-4-fluorobenzo[d]thiazole-6-carboxylic acid]
67 | 64 | O=C(O)c1ccc2nc([C@]3(O)CC[C@@H](OCc4c(-c5c(Cl)cccc5Cl)noc4C4CC4)CC3)sc2c1 [Example 11-30, 2-((1s,4s)-4-((5-Cyclopropyl-3-(2,6-dichlorophenyl)isoxazol-4-yl)methoxy)-1-hydroxycyclohexyl)benzo[d]thiazole-6-carboxylic acid]
